Assays:
KasA [1] = molecular target: T1, KasA (Mycobacterium tuberculosis, UniProt P9WQD9); assay type: cell-based
KasA [2] = molecular target: T1, KasA; assay type: biochemical

T1 sequence (P9WQD9 whole entry): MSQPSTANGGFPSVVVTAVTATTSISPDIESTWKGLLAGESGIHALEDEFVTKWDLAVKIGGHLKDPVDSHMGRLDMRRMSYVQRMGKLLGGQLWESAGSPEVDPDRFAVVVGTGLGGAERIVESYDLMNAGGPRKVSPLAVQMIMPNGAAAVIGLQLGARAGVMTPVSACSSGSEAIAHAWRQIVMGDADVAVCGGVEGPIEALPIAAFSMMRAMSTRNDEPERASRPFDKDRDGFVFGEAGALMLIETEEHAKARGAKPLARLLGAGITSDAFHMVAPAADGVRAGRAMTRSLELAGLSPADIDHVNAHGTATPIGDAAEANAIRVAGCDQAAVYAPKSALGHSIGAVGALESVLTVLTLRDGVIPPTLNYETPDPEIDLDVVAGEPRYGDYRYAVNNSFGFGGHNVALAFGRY

| SMILES | bead-immobilized probe captures KasA from M. bovis BCG extract, competed by free (KasA [1]) | Kd (KasA [2]) [µM] |
| --- | --- | --- |
| CCCCS(=O)(=O)Nc1ccc2cnn(CCCN)c2c1 [compound 1, tagged analogue (1)] | only three proteins were efficiently competed off the beads by excess GSK3011724A: KasA | – |
| CCCCS(=O)(=O)N(C)c1ccc2cnn(C)c2c1 [compound 2, inactive analogue 2] | – | 4.5 |

— publication PMC5025758 (Nature Communications, 2016)
